The numbers were not newly measured in US8389778B2, “Preparation of mannitol modification III” (Aptuit (West Lafayette), LLC, priority 2007, dated 2013), which cites them from elsewhere.

With `OC[C@@H](O)[C@@H](O)[C@H](O)[C@H](O)CO` [hemihydrate, Mannitol hemihydrate], the “stability of the hemihydrate” value (ambient conditions) was “unstable under ambient conditions”. In the case of `OC[C@@H](O)[C@@H](O)[C@H](O)[C@H](O)CO` [modification III, mannitol], the “phase transformation of modification III into modification I on storage” value (kept dry, period of 5 years) is “did not transform into modification I over a period of 5 years”.
